Laboratory results taken from patent publication US9422254B2, “Methoxyacrylate-based fungicide and methods for preparing and using the same” (priority 2008, dated 2016).

Columns and labels:
[1] = test system: Helminthosporium torulosum; assay: microbe, parasite or virus in culture; format: cell-based; settings: Corynespora torulosa, read-out: Inhibition rate (%)
[2] = test system: rat; assay: Acute oral test; format: in vivo; settings: rat
Experimental: (§1) The toxicological indexes of the compound were tested following the standard GB15670-1995 “Toxicological test methods of pesticides for registration” by Tongji Medical College, Huazhong University of Science and Technology.

[3] = Acute oral test; format: in vivo, rat; settings: in vivo
Experimental: as §1

[4] = test system: melon powdery mildew; assay: Field efficacy trial of emulsifier concentrate 1, melon powdery mildew; format: in vivo
Experimental: To a beaker (1000 mL), 50 g (100% basis) of the compound of Formula (I), 150 g of DMF, and 50 g of acetone were added and stirred for dissolution. To the solution, 25 g of pesticide emulsifier No. 500 and 50 g of Tween 80, 20 g of epoxidized soybean oil, and […] of toluene were added. Thus, the emulsifier concentrate 1 having 5 wt. % of the compound of Formula (I) was obtained and further packed.
On the basis of indoor activity evaluation, field efficacy trials of the compound of Formula (I) on cucumber downy mildew, cucumber powdery mildew, and melon powdery mildew were conducted.

[5] = target: succinate-cytochrome C oxidase (SCO) (Sus scrofa, UniProt P24964); assay: Enzyme activity test, SCO; format: biochemical; settings: azoxystrobin as control agent
Sequence of succinate-cytochrome C oxidase (SCO) (P24964 whole entry): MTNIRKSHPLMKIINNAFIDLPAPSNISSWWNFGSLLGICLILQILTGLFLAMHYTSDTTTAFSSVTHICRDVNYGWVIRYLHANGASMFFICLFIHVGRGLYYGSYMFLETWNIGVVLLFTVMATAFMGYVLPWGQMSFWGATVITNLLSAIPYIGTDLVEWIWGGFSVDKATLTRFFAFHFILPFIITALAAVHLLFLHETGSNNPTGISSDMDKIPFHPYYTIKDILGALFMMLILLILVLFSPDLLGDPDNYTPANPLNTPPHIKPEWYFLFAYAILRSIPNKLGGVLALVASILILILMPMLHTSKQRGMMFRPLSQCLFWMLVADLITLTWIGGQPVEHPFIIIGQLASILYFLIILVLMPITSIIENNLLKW
Experimental: (§2) Take NADH oxidase (NOX), succinate-cytochrome C oxidase (SCO), and Complex III as target enzymes, the inhibitory activity of the compound of Formula (I) was tested.
(§3) ^a NOX is generally used to detect an inhibitor of Complex I and Complex III; SCO is generally used to detect an inhibitor of Complex II and Complex III. Thus, an inhibitor of Complex III should have inhibitory activity on the two enzymes.

[6] = test system: Fusarium moniliforme; assay: microbe, parasite or virus in culture; format: cell-based; settings: Fusarium verticillioides, read-out: Inhibition rate (%)
[7] = test system: rat; assay: Acute skin test; format: in vivo; settings: rat
Experimental: as §1

[8] = Acute skin test; format: in vivo, rat; settings: in vivo, topical
Experimental: as §1

[9] = test system: Gibberella zea; assay: organism not typed; format: cell-based; settings: read-out: Inhibition rate (%)
[10] = test system: quail; assay: Acute oral toxicity test on quail; format: in vivo
Experimental: (§4) After acute toxicity and Ames test had been finished, environmental toxicity test was conducted following “Guideline for Environmental Safety Evaluation of Chemical Pesticides” of Agriculture Ministry of China by Shenyang Chemical Research Institute/Supervision and Test Center for Pesticide Safety Evaluation and Quality Control.

[11] = test system: Fusarium oxysporum; assay: microbe, parasite or virus in culture; format: cell-based; settings: read-out: Inhibition rate (%)
[12] = test system: Sclerotinia sclerotirum; assay: microbe, parasite or virus in culture; format: cell-based; settings: read-out: Inhibition rate (%)
[13] = target: NADH oxidase (NOX) (Sus scrofa, UniProt P24964); assay: Enzyme activity test, NOX; format: biochemical; settings: azoxystrobin as control agent
Sequence of NADH oxidase (NOX) (P24964 whole entry): as above
Experimental: as §2, §3

[14] = Acute toxicity test on zebra fish; settings: in vivo
Experimental: as §4

[15] = test system: Rhizoctonia solani (wheat sheath blight); assay: microbe, parasite or virus in culture; format: cell-based; settings: read-out: Inhibition rate (%)
[16] = Ames test; format: cell-based
Experimental: as §1

[17] = test system: Pyricularia oryzae; assay: microbe, parasite or virus in culture; format: cell-based; settings: read-out: Inhibition rate (%)
[18] = test system: Rhizoctonia solani (rice sheath blight); assay: microbe, parasite or virus in culture; format: cell-based; settings: read-out: Inhibition rate (%)
[19] = test system: Ustilaginoidea virens; assay: microbe, parasite or virus in culture; format: cell-based
[20] = 12.5 mg/L, 7th day after first administration
[21] = 12.5 mg/L, 7th day after second administration
[22] = 12.5 mg/L, 14th day after second administration
[23] = 25 mg/L, 7th day after first administration
[24] = 25 mg/L, 7th day after second administration
[25] = 25 mg/L, 14th day after second administration
[26] = 50 mg/L, 7th day after first administration
[27] = 50 mg/L, 7th day after second administration
[28] = 50 mg/L, 14th day after second administration
[29] = 100 mg/L, 7th day after first administration
[30] = 100 mg/L, 7th day after second administration
[31] = 100 mg/L, 14th day after second administration

Work on CO/C=C(/C(=O)OC)c1ccccc1CSc1nc2cc(OC)ccc2s1 [Compound of Formula (I), (E)-methyl 3-methoxy-2-(2-((5-methoxy-benzothiazol-2-ylthio)methyl)phenyl)acrylate] yielded an inhibition at 0.3 µg/mL ([1]; 0.3 mg/L) of 11.3%, an inhibition at 3 µg/mL ([1]; 3 mg/L) of 18.4% and an inhibition at 30 µg/mL ([1]; 30 mg/L) of 21.4%. The “Toxicity (acute oral test)” value [2] was “Low toxicity”, the LD50 ([3]; Female rat) was greater than 5000 mg/kg and the LD50 ([3]; Male rat) was greater than 5000 mg/kg. For the same molecule, the Disease index [4, 20] was 8.80, the “Efficacy (%)” value [4, 20] was 27.16% and the Disease index [4, 21] was 13.44. For the same molecule, the “Efficacy (%)” value [4, 21] was 61.65%, the Disease index [4, 22] was 40.33 and the “Efficacy (%)” value [4, 22] was 29.55%. For the same molecule, the Disease index [4, 23] was 7.11, the “Efficacy (%)” value [4, 23] was 34.38% and the Disease index [4, 24] was 13.63. For the same molecule, the “Efficacy (%)” value [4, 24] was 67.15%, the Disease index [4, 25] was 31.50 and the “Efficacy (%)” value [4, 25] was 47.00%. The Disease index [4, 26] was 7.92, the “Efficacy (%)” value [4, 26] was 35.77% and the Disease index [4, 27] was 10.88. For the same molecule, the “Efficacy (%)” value [4, 27] was 75.54%, the Disease index [4, 28] was 30.42 and the “Efficacy (%)” value [4, 28] was 54.57%. For the same molecule, the Disease index [4, 29] was 6.29, the “Efficacy (%)” value [4, 29] was 39.15% and the Disease index [4, 30] was 4.52. For the same molecule, the “Efficacy (%)” value [4, 30] was 86.22%, the Disease index [4, 31] was 19.45 and the “Efficacy (%)” value [4, 31] was 63.47%. For the same molecule, the “inhibitory activity on SCO compared with azoxystrobin” value [5] was “much higher inhibitory activity”, the inhibition at 0.3 µg/mL ([6]; 0.3 mg/L) was 9.6% and the inhibition at 3 µg/mL ([6]; 3 mg/L) was 30.8%. The inhibition at 30 µg/mL ([6]; 30 mg/L) was 43.6%, the “Toxicity (acute skin test)” value [7] was “Low toxicity” and the LD50 ([8]; Female rat) was greater than 2000 mg/kg. For the same molecule, the LD50 ([8]; Male rat) was greater than 2000 mg/kg, the inhibition at 0.3 µg/mL [9] was 34.9% and the inhibition at 3 µg/mL [9] was 45.9%. The inhibition at 30 µg/mL [9] was 54.6%, the LC50 [10] was “LC50 > 1100 mg/kg.bw” and the inhibition at 0.3 µg/mL ([11]; 0.3 mg/L) was 29.4%. For the same molecule, the inhibition at 3 µg/mL ([11]; 3 mg/L) was 36.1%, the inhibition at 30 µg/mL ([11]; 30 mg/L) was 43.7% and the inhibition at 0.3 µg/mL ([12]; 0.3 mg/L) was 50.8%. The inhibition at 3 µg/mL ([12]; 3 mg/L) was 61%, the inhibition at 30 µg/mL ([12]; 30 mg/L) was 80% and the “inhibitory activity on NOX compared with azoxystrobin” value [13] was “much higher inhibitory activity”. For the same molecule, the LC50 at 24 h ([14]; 24 hrs) was 0.069 µg/mL, the LC50 at 48 h ([14]; 48 hrs) was 0.06 µg/mL and the LC50 at 72 h ([14]; 72 hrs) was 0.047 µg/mL. The LC50 at 96 h ([14]; 96 hrs) was 0.043 µg/mL, the inhibition at 0.3 µg/mL ([15]; 0.3 mg/L) was 22.2% and the inhibition at 3 µg/mL ([15]; 3 mg/L) was 44.4%. For the same molecule, the inhibition at 30 µg/mL ([15]; 30 mg/L) was 68.5%, the Ames test [16] was “Negative” and the inhibition at 0.3 µg/mL [17] was 23.6%. The inhibition at 3 µg/mL [17] was 56.5%, the inhibition at 30 µg/mL [17] was 82.6% and the inhibition at 0.3 µg/mL ([18]; 0.3 mg/L) was 42.7%. The inhibition at 3 µg/mL ([18]; 3 mg/L) was 62.1%, the inhibition at 30 µg/mL ([18]; 30 mg/L) was 68.9% and the “in vitro effect” value [19] was “particularly effective”. For the same molecule, the inhibition at 0.3 µg/mL ([19]; Ustilaginoidea virens, 0.3 mg/L, read-out: Inhibition rate (%)) was 74.8%, the inhibition at 3 µg/mL ([19]; Ustilaginoidea virens, 3 mg/L, read-out: Inhibition rate (%)) was 100% and the inhibition at 30 µg/mL ([19]; Ustilaginoidea virens, 30 mg/L, read-out: Inhibition rate (%)) was 100%.
